The text below walks through data of ChEMBL document CHEMBL1770049, “Synthesis of novel mast cell-stabilising and anti-allergic 1,2,3,4-tetrahydro-1-naphthalenols and related compounds” (Eur J Med Chem, 2011).

Active and inactive are the calls of the source. The rule behind the calls is not given here.

The nature of data set [1]: Antiallergic activity in rat Peritoneal mast cell assessed as inhibition of compound 48/80-induced histamine release. It is filed as functional, cell-based.
Data set [2] is described as follows: Antiallergic activity in rat Peritoneal mast cell assessed as inhibition of compound 48/80-induced histamine release at 20 uM. The class given is functional.
The subject of a further data set is Mus musculus. The data set is described as follows: Antiinflammatory activity in Laca mouse assessed as inhibition of arachidonic acid induced ear oedema at 300 ug/ear. The class given is functional, organism-based.
The nature of data set [3]: Antiallergic activity in rat Peritoneal mast cell assessed as inhibition of Con A-induced histamine release. It is filed as functional, cell-based.
The test system of the next data set is Rattus norvegicus. Put plainly: Antiallergic activity in sensitized rat assessed as inhibition of ovalbumin-induced passive cutaneous anaphylaxis at 3 mg/kg, iv after 30 mins relative to control. The class given is functional. The following applies: 0.5 h.
Data set [4] is described as follows: Lipophilicity, log P of the compound. It is filed as physicochemical. The note with it: octanol/water.
A short description of data set [5]: Antiallergic activity in rat Peritoneal mast cell assessed as inhibition of ionophore A23187-induced histamine release. The class given is functional, cell-based.

By IC50 is commonly meant the concentration that inhibits the measured activity by half. A word on the inhibition: it is the change of the read-out against control, counted positive when it falls. As a reminder, the inhibition in vivo is the drop in the measured response relative to a control, in per cent. One may read the logP as the decadic logarithm of the partition coefficient of the neutral form, usually between octanol and water.

On to `Cc1ccc(CC2(/C=C/c3ccccc3)CCc3ccccc3C2O)cc1` (stereo not given), for which, in data set [1], the IC50 was determined as 9.4 µM.

In the case of `O=C1c2ccccc2CCC1C1=Cc2ccccc2CC1` (stereo not given), the IC50 in data set [1] was determined as 8 µM.

For `CC(Cc1ccccc1)(C1=Cc2ccccc2C1)C(O)c1ccccc1` (stereo not given), the inhibition at 20 µM in data set [2] is 82%. Also, the outcome in the data set with Mus musculus was inactive.

For `OC1c2ccccc2CC1(Cc1ccccc1)C1=Cc2ccccc2CC1` (stereo not given), the IC50 in data set [3] is 3.6 µM; in data set [1] it was 7.7 µM; in data set [5], 4.7 µM. In the data set on Rattus norvegicus, the inhibition in vivo at 3 mg/kg amounted to 2%. In data set [4], this compound showed a logP of 6.3. For the same compound, the result in the data set with Mus musculus was inactive.

`CC(Cc1ccccc1)(C1=Cc2ccccc2CC1)C(O)c1ccccc1` (stereo not given): in data set [1], the IC50 turned out to be 3.3 µM. Besides, in the data set with Mus musculus, the outcome was inactive.

Regarding `OC1c2ccccc2CCC1(Cc1ccccc1)C1=Cc2ccccc2C1` (stereo not given), the IC50 in data set [3] came out at 0.75 µM; in data set [1] it was 4.1 µM; in data set [5], 10 µM. Also, the inhibition in vivo at 3 mg/kg in the data set on Rattus norvegicus is -5%. In addition, the logP in data set [4] turned out to be 6.3. In addition, the outcome in the data set on Mus musculus was Active.

Take `O=C(O)c1cc(=O)c2c(OCC(O)COc3cccc4oc(C(=O)O)cc(=O)c34)cccc2o1` [CROMOLYN SODIUM]: the inhibition in vivo at 3 mg/kg in the data set on Rattus norvegicus was found to be 87%. In addition, the inhibition at 20 µM in data set [2] was 10%.

Take `CC(/C=C/c1ccccc1)(Cc1ccccc1)C(O)c1ccccc1` (stereo not given): the concentration for half-maximal inhibition (IC50) in data set [1] worked out at 70.9 µM.

Turning to `OC1c2ccccc2CCC1(/C=C/c1ccccc1)Cc1ccccc1` (stereo not given), in the data set with Rattus norvegicus, the inhibition in vivo at 3 mg/kg turned out to be 44%. Moreover, the IC50 in data set [1] worked out at 55.3 µM. This compound returned a logP in data set [4] of 6.58. Also, the result in the data set with Mus musculus was inactive.
